Numbered stars: 1 amine (or outer) side, 2 acyl side, 3 side chain; on linkers, the order of the positions; unused ones are H or OH. Bridge positions count the residues as written; N and C are the ends. Square brackets hold non-standard residues; d marks the D form. Peptide text beside a SMILES is read from it. * marks the point of attachment. C20 diacid = O=C(O)CCCCCCCCCCCCCCCCCCC(=O)*; γGlu = O=C(O)[C@H](CCC(=O)[*:2])N[*:1]; NMeI = CC[C@H](C)[C@H](NC)C(=O)O; Sar = CNCC(=O)O
molecular target: T1, human calcitonin receptor (hCTR2) (Homo sapiens, UniProt P30988); assay: hCTR2 assay: induction of cAMP (AlphaScreen cAMP Assay kit) in COS7 cells expressing hCTR2; format: cell-based
T1 construct: expressed in transfected cells
T1 sequence (P30988 25-474): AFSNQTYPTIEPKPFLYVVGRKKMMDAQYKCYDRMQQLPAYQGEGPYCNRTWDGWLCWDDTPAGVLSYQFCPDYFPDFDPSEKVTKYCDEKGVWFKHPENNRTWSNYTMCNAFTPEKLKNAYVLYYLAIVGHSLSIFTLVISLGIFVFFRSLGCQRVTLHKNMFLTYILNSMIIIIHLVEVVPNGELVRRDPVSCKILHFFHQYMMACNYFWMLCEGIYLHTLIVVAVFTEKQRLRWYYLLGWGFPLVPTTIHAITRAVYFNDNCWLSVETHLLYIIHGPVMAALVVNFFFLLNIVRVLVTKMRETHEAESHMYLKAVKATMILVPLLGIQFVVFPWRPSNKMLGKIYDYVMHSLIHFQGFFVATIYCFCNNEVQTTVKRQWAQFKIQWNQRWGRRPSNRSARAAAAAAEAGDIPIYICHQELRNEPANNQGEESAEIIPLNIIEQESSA
From the text: The cell line COS7, originating from African Green Monkey kidney fibroblast cells, was used for establishment of the stable cell lines described below. The COS7 cellular background was used due to it being RAMP naive, and as such it provides the best available system for testing of the monomeric hCTR and different heterodimeric amylin receptor subtypes functionally generated by introduction of the individual RAMPs.
A cell line expressing the human calcitonin receptor (hCTR2) was generated in the COS7 cellular background as stable clones. In brief, hCTR2 (GI: 4502547) was amplified by PCR using primers encoding terminal restriction sites for subcloning. The 5'-end primers additionally encoded a near Kozak consensus sequence to ensure efficient translation. The fidelity of the DNA encoding the receptor was confirmed by DNA sequencing. The PCR products encoding the receptor were subcloned into a mammalian expression vector containing a neomycin (G418) resistance marker. The mammalian expression vector encoding the receptor was transfected into COS7 cells by a standard liposome transfection method. 48 hours post-transfection, cells were seeded for limited dilution cloning and selected with 1 mg/ml G418 in the culture medium. After 3 weeks, surviving colonies of hCTR2-expressing cells were picked, propagated and tested in the amylin efficacy assay as described in Example 3 below. One hCTR2-expressing clone was chosen for compound profiling.
In vitro activity of test peptides at the hCTR2 and hAMYR3 receptors was assessed by measuring the induction of cAMP following stimulation of the receptor by pramlintide or peptides of the invention using the AlphaScreen® cAMP Assay kit from Perkin-Elmer.
Briefly, COS7 cells expressing hCTR2 (see Example 2, above) were seeded at 30-40,000 cells per well in 96-well microtiter plates coated with 0.01 % poly-L-lysine, and grown for 1 day in culture in 100 µl growth medium [DMEM, 10% FCS, Penicillin (100 IU/ml), Streptomycin (100 µg/ml)]. On the day of analysis, growth medium was removed and the cells were washed once with 200 µl Tyrode buffer [Tyrode's Salts (9.6 g/l), 10 mM HEPES, pH 7.4]. Cells were incubated in 100 µl Tyrode buffer containing increasing concentrations of test peptides, 100 µM IBMX and 0.1% casein for 15 min at 37° C. The reaction was stopped by carefully decanting off the compound/buffer medium and replacing it with lysis/detection buffer (80 µl 0.1 % w/v BSA, 5 mM HEPES, 0.3 % v/v Tween-20 in deionized water). After incubation at room temperature for 10 min., the cAMP content of the resulting cell lysate was estimated according to the AlphaScreen® cAMP Assay manufacturer's instructions. EC50 values and relative efficacy values (in %) compared to reference peptide (Pramlintide) were estimated by computer-aided curve fitting using the 4-parameter logistic (4PL) non-linear model.
The in vitro activity results (expressed as EC50 values) for peptides of the invention and for Pramlintide (reference peptide) are summarized in Table 2, below.

Compound	EC50 [nM]
CC[C@H](C)[C@@H](C(=O)N[C@@H](CC(C)C)C(=O)N[C@@H](CO)C(=O)N[C@@H](CO)C(=O)N[C@H](C(=O)N[C@@H](CC(N)=O)C(=O)N[C@H](C(=O)NCC(=O)N[C@@H](CO)C(=O)N[C@@H](CC(N)=O)C(=O)N[C@H](C(=O)N1CCC[C@H]1C(N)=O)[C@@H](C)O)C(C)C)[C@@H](C)O)N(C)C(=O)[C@@H](C)NC(=O)CN(C)C(=O)[C@H](Cc1ccccc1)NC(=O)[C@H](CC(N)=O)NC(=O)[C@H](CC(N)=O)NC(=O)[C@H](CO)NC(=O)[C@H](CO)NC(=O)[C@H](Cc1c[nH]cn1)NC(=O)[C@H](Cc1c[nH]cn1)NC(=O)[C@H](CC(C)C)NC(=O)[C@H](Cc1ccccc1)NC(=O)[C@H](CCC(=O)O)NC(=O)[C@H](C)NC(=O)[C@H](CC(C)C)NC(=O)[C@H](CCCNC(=N)N)NC(=O)[C@H](CCC(N)=O)NC(=O)[C@@H](NC(=O)[C@H](C)NC(=O)[C@@H]1CSSC[C@H](NC(=O)[C@H](CCCNC(=N)N)NC(=O)CC[C@H](NC(=O)CCCCCCCCCCCCCCCCCCC(=O)O)C(=O)O)C(=O)N[C@@H](CC(N)=O)C(=O)N[C@@H]([C@@H](C)O)C(=O)N[C@@H](C)C(=O)N[C@@H]([C@@H](C)O)C(=O)N1)[C@@H](C)O [Compound 14, [19CD]-isoGlu-RC()NTATC()ATQRLAEFLHHSSNNF-Gly(Me)-DAla-Ile(Me)-LSSTNVGSNTP-NH2] ({C20 diacid-γGlu}-RCNTATCATQRLAEFLHHSSNNF[Sar][dA][NMeI]LSSTNVGSNTP-NH2; disulfide 2-7)	0.21
CC[C@H](C)[C@@H](C(=O)N[C@@H](CC(C)C)C(=O)N[C@@H](CO)C(=O)N[C@@H](CO)C(=O)N[C@H](C(=O)N[C@@H](CC(N)=O)C(=O)N[C@H](C(=O)NCC(=O)N[C@@H](CO)C(=O)N[C@@H](CC(N)=O)C(=O)N[C@H](C(=O)N1CCC[C@H]1C(N)=O)[C@@H](C)O)C(C)C)[C@@H](C)O)N(C)C(=O)[C@H](C)NC(=O)CN(C)C(=O)[C@H](Cc1ccccc1)NC(=O)[C@H](CC(N)=O)NC(=O)[C@H](CC(N)=O)NC(=O)[C@H](CO)NC(=O)[C@H](CO)NC(=O)[C@H](Cc1c[nH]cn1)NC(=O)[C@@H](Cc1c[nH]cn1)NC(=O)[C@H](CC(C)C)NC(=O)[C@H](Cc1ccccc1)NC(=O)[C@H](CCC(=O)O)NC(=O)[C@H](C)NC(=O)[C@H](CC(C)C)NC(=O)[C@H](CCCNC(=N)N)NC(=O)[C@H](CCC(N)=O)NC(=O)[C@@H](NC(=O)[C@H](C)NC(=O)[C@@H]1CSSC[C@H](NC(=O)[C@H](CCCNC(=N)N)NC(=O)CC[C@H](NC(=O)CCCCCCCCCCCCCCCCCCC(=O)O)C(=O)O)C(=O)N[C@@H](CC(N)=O)C(=O)N[C@@H]([C@@H](C)O)C(=O)N[C@@H](C)C(=O)N[C@@H]([C@@H](C)O)C(=O)N1)[C@@H](C)O [Compound 11, [19CD]-isoGlu-RC()NTATC()ATQRLAEFL-DHis-HSSNNF-Gly(Me)-A-Ile(Me)-LSSTNVGSNTP-NH2] ({C20 diacid-γGlu}-RCNTATCATQRLAEFL[dH]HSSNNF[Sar]A[NMeI]LSSTNVGSNTP-NH2; disulfide 2-7)	2.3
CC[C@H](C)[C@@H](C(=O)N[C@@H](CC(C)C)C(=O)N[C@@H](CO)C(=O)N[C@@H](CO)C(=O)N[C@H](C(=O)N[C@@H](CC(N)=O)C(=O)N[C@H](C(=O)NCC(=O)N[C@@H](CO)C(=O)N[C@@H](CC(N)=O)C(=O)N[C@H](C(=O)N1CCC[C@H]1C(N)=O)[C@@H](C)O)C(C)C)[C@@H](C)O)N(C)C(=O)[C@H](C)NC(=O)CN(C)C(=O)[C@H](Cc1ccccc1)NC(=O)[C@H](CC(N)=O)NC(=O)[C@H](CC(N)=O)NC(=O)[C@H](CO)NC(=O)[C@H](CO)NC(=O)[C@H](Cc1c[nH]cn1)NC(=O)[C@H](Cc1c[nH]cn1)NC(=O)[C@H](CC(C)C)NC(=O)[C@H](Cc1ccccc1)NC(=O)[C@H](CCC(=O)O)NC(=O)[C@H](C)NC(=O)[C@@H](CC(C)C)NC(=O)[C@H](CCCNC(=N)N)NC(=O)[C@H](CCC(N)=O)NC(=O)[C@@H](NC(=O)[C@H](C)NC(=O)[C@@H]1CSSC[C@H](NC(=O)[C@H](CCCNC(=N)N)NC(=O)CC[C@H](NC(=O)CCCCCCCCCCCCCCCCCCC(=O)O)C(=O)O)C(=O)N[C@@H](CC(N)=O)C(=O)N[C@@H]([C@@H](C)O)C(=O)N[C@@H](C)C(=O)N[C@@H]([C@@H](C)O)C(=O)N1)[C@@H](C)O [Compound 6, [19CD]-isoGlu-RC()NTATC()ATQR-DLeu-AEFLHHSSNNF-Gly(Me)-A-Ile(Me)-LSSTNVGSNTP-NH2] ({C20 diacid-γGlu}-RCNTATCATQR[dL]AEFLHHSSNNF[Sar]A[NMeI]LSSTNVGSNTP-NH2; disulfide 2-7)	7.8
CC[C@H](C)[C@@H](C(=O)N[C@@H](CC(C)C)C(=O)N[C@@H](CO)C(=O)N[C@@H](CO)C(=O)N[C@H](C(=O)N[C@@H](CC(N)=O)C(=O)N[C@H](C(=O)NCC(=O)N[C@@H](CO)C(=O)N[C@@H](CC(N)=O)C(=O)N[C@H](C(=O)N1CCC[C@H]1C(N)=O)[C@@H](C)O)C(C)C)[C@@H](C)O)N(C)C(=O)CN(C)C(=O)[C@H](Cc1ccccc1)NC(=O)[C@H](CC(N)=O)NC(=O)[C@@H](CC(N)=O)NC(=O)[C@H](CO)NC(=O)[C@H](CO)NC(=O)[C@H](Cc1c[nH]cn1)NC(=O)[C@H](Cc1c[nH]cn1)NC(=O)[C@H](CC(C)C)NC(=O)[C@H](Cc1ccccc1)NC(=O)[C@H](CCC(=O)O)NC(=O)[C@H](C)NC(=O)[C@H](CC(C)C)NC(=O)[C@H](CCCNC(=N)N)NC(=O)[C@H](CCC(N)=O)NC(=O)[C@@H](NC(=O)[C@H](C)NC(=O)[C@@H]1CSSC[C@H](NC(=O)[C@H](CCCNC(=N)N)NC(=O)CC[C@H](NC(=O)CCCCCCCCCCCCCCCCCCC(=O)O)C(=O)O)C(=O)N[C@@H](CC(N)=O)C(=O)N[C@@H]([C@@H](C)O)C(=O)N[C@@H](C)C(=O)N[C@@H]([C@@H](C)O)C(=O)N1)[C@@H](C)O [Compound 35, [19CD]-isoGlu-RC()NTATC()ATQRLAEFLHHSS-DAsn-NF-Gly(Me)-Ile(Me)-LSSTNVGSNTP-NH2] ({C20 diacid-γGlu}-RCNTATCATQRLAEFLHHSS[dN]NF[Sar][NMeI]LSSTNVGSNTP-NH2; disulfide 2-7)	0.16
CC[C@H](C)[C@@H](C(=O)N[C@@H](CC(C)C)C(=O)N[C@@H](CO)C(=O)N[C@@H](CO)C(=O)N[C@H](C(=O)N[C@@H](CC(N)=O)C(=O)N[C@H](C(=O)NCC(=O)N[C@@H](CO)C(=O)N[C@@H](CC(N)=O)C(=O)N[C@H](C(=O)N1CCC[C@H]1C(N)=O)[C@@H](C)O)C(C)C)[C@@H](C)O)N(C)C(=O)[C@H](C)NC(=O)CN(C)C(=O)[C@H](Cc1ccccc1)NC(=O)[C@H](CC(N)=O)NC(=O)[C@H](CC(N)=O)NC(=O)[C@H](CO)NC(=O)[C@H](CO)NC(=O)[C@@H](Cc1c[nH]cn1)NC(=O)[C@H](Cc1c[nH]cn1)NC(=O)[C@H](CC(C)C)NC(=O)[C@H](Cc1ccccc1)NC(=O)[C@H](CCC(=O)O)NC(=O)[C@H](C)NC(=O)[C@H](CC(C)C)NC(=O)[C@H](CCCNC(=N)N)NC(=O)[C@H](CCC(N)=O)NC(=O)[C@@H](NC(=O)[C@H](C)NC(=O)[C@@H]1CSSC[C@H](NC(=O)[C@H](CCCNC(=N)N)NC(=O)CC[C@H](NC(=O)CCCCCCCCCCCCCCCCCCC(=O)O)C(=O)O)C(=O)N[C@@H](CC(N)=O)C(=O)N[C@@H]([C@@H](C)O)C(=O)N[C@@H](C)C(=O)N[C@@H]([C@@H](C)O)C(=O)N1)[C@@H](C)O [Compound 12, [19CD]-isoGlu-RC()NTATC()ATQRLAEFLH-DHis-SSNNF-Gly(Me)-A-Ile(Me)-LSSTNVGSNTP-NH2] ({C20 diacid-γGlu}-RCNTATCATQRLAEFLH[dH]SSNNF[Sar]A[NMeI]LSSTNVGSNTP-NH2; disulfide 2-7)	0.088

Reference: patent publication EP3046573B1, “AMYLIN ANALOGUES” (Zealand Pharma A/S, priority 2013, dated 2015)
